Data: patent publication US12122780B2, “Pyrimidinyl group-containing tricyclic compound serving as c-Met inhibitor” (JIANGSU AOSAIKANG PHARMACEUTICAL CO., LTD., priority 2019, dated 2024)
Where a name gives a salt, the structure may show the parent alone.

How the values were obtained:
EBC-1 cells = assay: EBC-1 cell proliferation experiment (CellTiter-Glo); format: cell-based, human; settings: 3 days
Protocol: MEM medium, fetal bovine serum, penicillin/streptomycin antibiotics were purchased from Wisent. EBC-1 cell line was purchased from Nanjing COBIO Bioscience Co., LTD. Envision multi-label analyzer (PerkinElmer).
EBC-1 cells were seeded in a white 96-well plate, […] cell suspension per well, which contained 3000 EBC-1 cells. The cell plate was placed in a carbon dioxide incubator for overnight culture.
The compound to be tested was diluted 5-fold to the eighth concentration with a discharge gun, i.e., from 2 mM to […], and double duplicate wells experiment was set. 78 μL of the medium was added to the middle plate, then 2 μL per well of gradient diluted compound was transferred to the corresponding position on the middle plate, then mixed well and 20 μL per well was transferred to the cell plate. The cell plate was cultured in a carbon dioxide incubator for 3 days. Another cell plate was prepared and the signal values were read on the day of dosing as […] to be used in the data analysis. 25 μL of Promega CellTiter-Glo was added to each well of this cell plate, and incubated at room temperature for 10 minutes to stabilize the luminescence signal. Readings were taken using a PerkinElmer Envision multi-label analyzer.
25 μL of Promega CellTiter-Glo reagent was added to each well of this cell plate, and incubated at room temperature for 10 minutes to stabilize the luminescence signal. Readings were taken using a PerkinElmer Envision multi-label analyzer.
Using the equation (Sample-Min)/(Max-Min)*100% to convert the original data to the inhibition rate, the IC50 value can be obtained by curve fitting with four parameters (obtained by “log(inhibitor) vs. response in GraphPad Prism—Variable slope mode).

c-Met enzyme = c-Met enzyme (Homo sapiens (Human), UniProt P08581); assay: c-Met enzyme activity inhibition (Promega c-Met Kinase Enzyme System, ADP-Glo); format: biochemical; settings: 10 μM ATP, 60 min, 30° C.
Protocol: To detect the inhibitory effect of the compounds on c-Met enzyme activity.
The c-Met Kinase Enzyme System was purchased from Promega. Envision multi-label analyzer (PerkinElmer).
The kinase buffer in the kit was used to dilute the enzyme, substrate, ATP and inhibitor.
The compound to be tested was diluted 5-fold to the eighth concentration with a discharge gun, i.e., from 50 μM to […], with a final DMSO concentration of 5%, and double duplicate wells experiment was set. 1 μL of each concentration gradient of the inhibitor, 2 μL of c-Met enzyme (4 ng), 2 μL of a mixture of the substrate and ATP (10 μM ATP, 0.2 μg/μL poly E4Y1) were added to the microplate, and the final concentration gradient of the compound of 10 μM was diluted to 0.13 nM. The reaction system was placed at 30° C. and the reaction was carried out for 60 minutes. When the reaction was completed, 5 μL of ADP-Glo reagent was added to each well and the reaction was carried out at 30° C. for another 40 minutes, when the reaction was completed, 10 μL of kinase detection reagent was added to each well, then the reaction was carried out at 30° C. for still another 30 minutes, chemiluminescence was read by the PerkinElmer Envision multi-label analyzer with an integration time of 0.5 seconds.
Using the equation (Sample-Min)/(Max-Min)*100% to convert the original data to the inhibition rate, the IC50 value can be obtained by curve fitting with four parameters (obtained by log(inhibitor) vs. response in GraphPad Prism—Variable slope mode).

c-Met enzyme, sequence (P08581 956-1390): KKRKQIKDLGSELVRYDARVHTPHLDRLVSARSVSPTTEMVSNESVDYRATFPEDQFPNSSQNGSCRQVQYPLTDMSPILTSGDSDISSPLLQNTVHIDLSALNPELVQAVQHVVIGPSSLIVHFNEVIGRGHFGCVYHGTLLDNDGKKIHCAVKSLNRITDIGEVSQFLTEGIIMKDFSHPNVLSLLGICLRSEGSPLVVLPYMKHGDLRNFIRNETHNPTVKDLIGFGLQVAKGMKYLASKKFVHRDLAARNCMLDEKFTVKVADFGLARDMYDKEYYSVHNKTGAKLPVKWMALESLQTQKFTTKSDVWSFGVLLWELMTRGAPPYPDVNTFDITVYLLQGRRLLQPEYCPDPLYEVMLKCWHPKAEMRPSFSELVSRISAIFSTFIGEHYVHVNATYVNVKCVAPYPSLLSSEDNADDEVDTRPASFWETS

`N#Cc1ccc2nc3n(Cc4cccc(-c5ncc(OCC6CCN(C7COC7)CC6)cn5)c4)c(=O)ccn3c2c1` [Hydrochloride of compound 26] was tested, and the IC50 (EBC-1 cells; Homo sapiens, EBC-1, 72 h) was 16.2 nM and the IC50 (c-Met enzyme) was 3.12 nM.

Compound `CN1CCC(COc2cnc(-c3cccc(Cn4c(=O)ccn5c6ccc(C#N)cc6nc45)c3)nc2)CC1` [Hydrochloride of compound 9] has an IC50 (EBC-1 cells; Homo sapiens, EBC-1, 72 h) of 31.8 nM and an IC50 (c-Met enzyme) of 21.8 nM.

For `CN1CCC(COc2cnc(-c3cccc(Cn4c5c(ccc4=O)-c4cc(F)ccc4C5(F)F)c3)nc2)CC1` [Formate of compound 4], the IC50 (c-Met enzyme) was 167 nM.

`COCCN1CCC(COc2cnc(-c3cccc(Cn4c(=O)ccn5c6cc(C#N)ccc6nc45)c3)nc2)CC1` [Hydrochloride of compound 35] showed an IC50 (EBC-1 cells; Homo sapiens, EBC-1, 72 h) of 5.8 nM and an IC50 (c-Met enzyme) of 11.6 nM.

Compound `CS(=O)(=O)CCN1CCC(COc2cnc(-c3cccc(Cn4c(=O)ccn5c6cc(C#N)ccc6nc45)c3)nc2)CC1` [Hydrochloride of compound 42] has an IC50 (c-Met enzyme) of 15.2 nM.

`CN1CCC(COc2cnc(-c3cccc(Cn4c5c(ccc4=O)-c4cc(F)ccc4C5=O)c3)nc2)CC1` [Formate of compound 3] showed an IC50 (EBC-1 cells; Homo sapiens, EBC-1, 72 h) of 32.8 nM and an IC50 (c-Met enzyme) of 16 nM.

`CN1CCC(COc2cnc(-c3cccc(Cn4c5c(ccc4=O)-c4cc(C#N)ccc4C5(F)F)c3)nc2)CC1` [Formate of compound 1] was tested, and the IC50 (EBC-1 cells; Homo sapiens, EBC-1, 72 h) was 133 nM and the IC50 (c-Met enzyme) was 42 nM.

With `CN1CC2(CC(Oc3cnc(-c4cccc(Cn5c(=O)ccn6c7cc(C#N)ccc7nc56)c4)nc3)C2)C1` [Hydrochloride of compound 28] the IC50 (EBC-1 cells; Homo sapiens, EBC-1, 72 h) was 66 nM and the IC50 (c-Met enzyme) was 58 nM.

`CN(C)CCN1CCC(COc2cnc(-c3cccc(Cn4c(=O)ccn5c6cc(C#N)ccc6nc45)c3)nc2)CC1` [Compound 31] gave an IC50 (EBC-1 cells; Homo sapiens, EBC-1, 72 h) of 493 nM.

For `N#Cc1ccc2nc3n(Cc4cccc(-c5ncc(OCC6CCN(C7CCC7)CC6)cn5)c4)c(=O)ccn3c2c1` [Hydrochloride of compound 44], the IC50 (EBC-1 cells) was 6.83 nM.

`N#Cc1ccc2nc3n(Cc4cccc(-c5ncc(OCC6CCN(C7CCC7)CC6)cn5)c4)c(=O)ccn3c2c1` [Hydrochloride of compound 45] gave an IC50 (EBC-1 cells) of 19.3 nM.

Compound `CN1CCC(COc2cnc(-c3cccc(Cn4c(=O)ccn5c6cc(C#N)cnc6nc45)c3)nc2)CC1` [Hydrochloride of compound 32] has an IC50 (EBC-1 cells; Homo sapiens, EBC-1, 72 h) of 816 nM.

In the case of `CN1CCC(COc2cnc(-c3cccc(Cn4c5c(cc(F)c4=O)-c4cc(C#N)ccc4C5(F)F)c3)nc2)CC1` [Hydrochloride of compound 16], the IC50 (EBC-1 cells; Homo sapiens, EBC-1, 72 h) is reported as 135 nM and the IC50 (c-Met enzyme) is reported as 45 nM.

`CCN1CCC(COc2cnc(-c3cccc(Cn4c5c(ccc4=O)-c4cc(C#N)ccc4C5=O)c3)nc2)CC1` [Hydrochloride of compound 12] was tested, and the IC50 (EBC-1 cells; Homo sapiens, EBC-1, 72 h) was 6.66 nM and the IC50 (c-Met enzyme) was 5.06 nM.

`CN1CCC(COc2cnc(-c3cccc(Cn4c(=O)ccn5c6cc(C#N)ccc6nc45)c3)nc2)CC1` [Hydrochloride of compound 11] gave an IC50 (EBC-1 cells; Homo sapiens, EBC-1, 72 h) of 6.99 nM and an IC50 (c-Met enzyme) of 3.26 nM.
